The values below come from BindingDB's records for doi:10.1016/s0960-894x(02)00886-7 (National Institute of Radiological Sciences, 2002).

The experiment is described as follows: In vitro binding affinity for PBR (peripheral benzodiazepine receptor) in monkey brain.

For orientation: Ki means a measure of affinity in units of concentration, obtained from inhibition or displacement. Compound `COc1ccc(OC)c(CN(C(C)=O)c2cc(F)ccc2Oc2ccccc2)c1` gave a Ki of 0.188 nM.
